Laboratory results: US10251395B2, “Substituted furano-/thienocycloalkylamino-2-pyrimidine derivatives and use thereof for controlling undesired plant growth” (Bayer CropScience Aktiengesellschaft, priority 2015, dated 2019)

Tests used:
Assay type in all cases: in vivo
Matricaria inodora [1] = experiment: Post-emergence herbicidal effect; details: assessed visually after about 3 weeks vs untreated controls
Excerpt: (§1) • ABUTH: Abutilon theophrasti ALOMY: Alopecurus myosuroides • AMARE: Amaranthus retroflexus AVEFA: Avena fatua • CYPES: Cyperus esculentus ECHCG: Echinochloa crus-galli • LOLMU: Lolium multiflorum MATIN: Matricaria inodora • PHBPU: Ipomoea purpurea POLCO: Polygonum convolvulus • SETVI: Setaria viridis STEME: Stellaria media • VERPE: Veronica persica VIOTR: Viola tricolor Seeds of monocotyledonous and dicotyledonous weed and crop plants are laid out in sandy loam in wood-fiber pots, covered with soil and cultivated in a greenhouse under good growth conditions. 2 to 3 weeks after sowing, the test plants are treated at the one-leaf stage. The compounds of the invention, formulated in the form of wettable powders (WP) or as emulsion concentrates (EC), are then sprayed onto the green parts of the plants as aqueous suspension or emulsion at a water application rate equating to 600 to 800 L/ha with addition of 0.2% wetting agent. After the test plants have been left to stand in the greenhouse under optimal growth conditions for about 3 weeks, the action of the preparations is assessed visually in comparison to untreated controls (herbicidal action in percent (%): 100% activity=the plants have died, 0% activity=like control plants).

Echinochloa crus-galli [2] = experiment: Post-emergence herbicidal effect; details: 320 g/ha, assessed visually after about 3 weeks vs untreated controls
Excerpt: as §1

Ipomoea purpurea = experiment: Post-emergence herbicidal effect; details: assessed visually after about 3 weeks vs untreated controls
Excerpt: as §1

Abutilon theophrasti [3] = experiment: Post-emergence herbicidal effect; details: assessed visually after about 3 weeks vs untreated controls
Excerpt: as §1

Amaranthus retroflexus [4] = experiment: Post-emergence herbicidal effect; details: assessed visually after about 3 weeks vs untreated controls
Excerpt: as §1

Viola tricolor [5] = experiment: Post-emergence herbicidal effect; details: assessed visually after about 3 weeks vs untreated controls
Excerpt: as §1

Veronica persica [6] = experiment: Post-emergence herbicidal effect; details: 320 g/ha, assessed visually after about 3 weeks vs untreated controls
Excerpt: as §1

Setaria viridis [7] = experiment: Post-emergence herbicidal effect; details: 320 g/ha, assessed visually after about 3 weeks vs untreated controls
Excerpt: as §1

Stellaria media [8] = experiment: Post-emergence herbicidal effect; details: assessed visually after about 3 weeks vs untreated controls
Excerpt: as §1

Matricaria inodora [9] = experiment: Pre-emergence herbicidal effect; details: scored visually after 3 weeks
Outline: (§2)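 Pre-em soil-surface spray; sandy loam, seeds covered with soil. WP/EC, aq. suspension/emulsion, 600–800 L/ha, +0.2% wetting agent. GH 3 wk; visual % activity vs untreated (100% = dead).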

Echinochloa crus-galli [10] = experiment: Pre-emergence herbicidal effect; details: scored visually after 3 weeks
Outline: as §2

Polygonum convolvulus [11] = experiment: Pre-emergence herbicidal effect; details: scored visually after 3 weeks
Outline: as §2

Abutilon theophrasti [12] = experiment: Pre-emergence herbicidal effect; details: Dosage 320 g/ha, scored visually after 3 weeks
Outline: as §2

Amaranthus retroflexus [13] = experiment: Pre-emergence herbicidal effect; details: scored visually after 3 weeks
Outline: as §2

Alopecurus myosuroides = experiment: Pre-emergence herbicidal effect; details: Dosage 320 g/ha, scored visually after 3 weeks
Outline: as §2

Viola tricolor [14] = experiment: Pre-emergence herbicidal effect; details: scored visually after 3 weeks
Outline: as §2

Veronica persica [15] = experiment: Pre-emergence herbicidal effect; details: scored visually after 3 weeks
Outline: as §2

Setaria viridis [16] = experiment: Pre-emergence herbicidal effect; details: scored visually after 3 weeks
Outline: as §2

Stellaria media [17] = experiment: Pre-emergence herbicidal effect; details: scored visually after 3 weeks
Outline: as §2

Polygonum convolvulus [18] = experiment: Post-emergence herbicidal effect; details: 320 g/ha, assessed visually after about 3 weeks vs untreated controls
Excerpt: as §1

Lolium multiflorum = experiment: Pre-emergence herbicidal effect; details: Dosage 320 g/ha, scored visually after 3 weeks
Outline: as §2

Row | SMILES | post-emergence efficacy ECHCG (Echinochloa crus-galli [2]) [%] | post-emergence efficacy ABUTH (Abutilon theophrasti [3]; 80 g/ha) [%] | post-emergence efficacy ABUTH (Abutilon theophrasti [3]; 320 g/ha) [%] | post-emergence efficacy AMARE (Amaranthus retroflexus [4]; 320 g/ha) [%] | post-emergence efficacy STEME (Stellaria media [8]; 320 g/ha) [%] | MATIN pre-emergence efficacy (herbicidal activity) (Matricaria inodora [9]; Dosage 80 g/ha) [%] | MATIN pre-emergence efficacy (herbicidal activity) (Matricaria inodora [9]; Dosage 320 g/ha) [%] | ECHCG pre-emergence efficacy (herbicidal activity) (Echinochloa crus-galli [10]; Dosage 320 g/ha) [%] | POLCO pre-emergence efficacy (herbicidal activity) (Polygonum convolvulus [11]; Dosage 320 g/ha) [%] | ABUTH pre-emergence efficacy (herbicidal activity) (Abutilon theophrasti [12]) [%] | AMARE pre-emergence efficacy (herbicidal activity) (Amaranthus retroflexus [13]; Dosage 80 g/ha) [%] | AMARE pre-emergence efficacy (herbicidal activity) (Amaranthus retroflexus [13]; Dosage 320 g/ha) [%] | VIOTR pre-emergence efficacy (herbicidal activity) (Viola tricolor [14]; Dosage 80 g/ha) [%] | VIOTR pre-emergence efficacy (herbicidal activity) (Viola tricolor [14]; Dosage 320 g/ha) [%] | VERPE pre-emergence efficacy (herbicidal activity) (Veronica persica [15]; Dosage 80 g/ha) [%] | VERPE pre-emergence efficacy (herbicidal activity) (Veronica persica [15]; Dosage 320 g/ha) [%] | SETVI pre-emergence efficacy (herbicidal activity) (Setaria viridis [16]; Dosage 80 g/ha) [%] | SETVI pre-emergence efficacy (herbicidal activity) (Setaria viridis [16]; Dosage 320 g/ha) [%] | STEME pre-emergence efficacy (herbicidal activity) (Stellaria media [17]; Dosage 80 g/ha) [%] | STEME pre-emergence efficacy (herbicidal activity) (Stellaria media [17]; Dosage 320 g/ha) [%] | also measured
1 | CC(=NO)c1cnc(NC2CCCc3sc(C)cc32)nc1N (racemic) [compound 341] | 70 | 80 | 90 | 90 | 60 | 100 | 100 | 100 | 100 | 70 | 100 | 100 | 100 | 100 | 100 | 100 | 90 | 100 | 100 | 100 | post-emergence efficacy MATIN (Matricaria inodora [1]; 80 g/ha): 60%; post-emergence efficacy MATIN (Matricaria inodora [1]; 320 g/ha): 90%; post-emergence efficacy PHBPU (Ipomoea purpurea; 80 g/ha): 80%; post-emergence efficacy PHBPU (Ipomoea purpurea; 320 g/ha): 90%; post-emergence efficacy AMARE (Amaranthus retroflexus [4]; 80 g/ha): 80%; post-emergence efficacy VIOTR (Viola tricolor [5]; 80 g/ha): 90%; post-emergence efficacy VIOTR (Viola tricolor [5]; 320 g/ha): 90%; post-emergence efficacy VERPE (Veronica persica [6]): 100%; post-emergence efficacy SETVI (Setaria viridis [7]): 60%; ECHCG pre-emergence efficacy (herbicidal activity) (Echinochloa crus-galli [10]; Dosage 80 g/ha): 60%; POLCO pre-emergence efficacy (herbicidal activity) (Polygonum convolvulus [11]; Dosage 80 g/ha): 70%; ALOMY pre-emergence efficacy (herbicidal activity) (Alopecurus myosuroides): 70%
2 | Cc1cc2c(s1)C(Nc1ncc3c(n1)CCCC3=O)CCC2 (racemic) [compound 8] | 100 |  | 80 | 90 | 90 | 100 | 100 | 100 | 100 | 100 | 100 | 100 | 100 | 100 | 100 | 100 | 90 | 100 | 80 | 100 | post-emergence efficacy VIOTR (Viola tricolor [5]; 320 g/ha): 90%; post-emergence efficacy VERPE (Veronica persica [6]): 90%; post-emergence efficacy STEME (Stellaria media [8]; 80 g/ha): 80%; ECHCG pre-emergence efficacy (herbicidal activity) (Echinochloa crus-galli [10]; Dosage 80 g/ha): 90%; POLCO pre-emergence efficacy (herbicidal activity) (Polygonum convolvulus [11]; Dosage 80 g/ha): 100%; ALOMY pre-emergence efficacy (herbicidal activity) (Alopecurus myosuroides): 80%
3 | Cc1cc2c(s1)CCC2Nc1ncc(S(C)(=O)=O)c(N)n1 (racemic) [compound 4] | 100 | 80 | 90 |  | 100 | 100 | 100 | 100 | 100 | 100 | 100 | 100 | 100 | 100 | 100 | 100 | 100 | 100 | 100 | 100 | post-emergence efficacy POLCO (Polygonum convolvulus [18]): 100%; LOLMU pre-emergence efficacy (herbicidal activity) (Lolium multiflorum): 100%
